Data on ten compounds can be found in patent US8278301B2, “2-alkylbenzoxazole carboxamides as 5HT3 modulators” (Albany Molecular Research, Inc., priority 2006, dated 2012).

One assay addresses T1, mouse 5-HT3 receptor (Mus musculus, UniProt P23979).
T1 construct: host or cells: mouse neuroblastoma cells (N1E-155 as printed)
T1 sequence (P23979 24-489): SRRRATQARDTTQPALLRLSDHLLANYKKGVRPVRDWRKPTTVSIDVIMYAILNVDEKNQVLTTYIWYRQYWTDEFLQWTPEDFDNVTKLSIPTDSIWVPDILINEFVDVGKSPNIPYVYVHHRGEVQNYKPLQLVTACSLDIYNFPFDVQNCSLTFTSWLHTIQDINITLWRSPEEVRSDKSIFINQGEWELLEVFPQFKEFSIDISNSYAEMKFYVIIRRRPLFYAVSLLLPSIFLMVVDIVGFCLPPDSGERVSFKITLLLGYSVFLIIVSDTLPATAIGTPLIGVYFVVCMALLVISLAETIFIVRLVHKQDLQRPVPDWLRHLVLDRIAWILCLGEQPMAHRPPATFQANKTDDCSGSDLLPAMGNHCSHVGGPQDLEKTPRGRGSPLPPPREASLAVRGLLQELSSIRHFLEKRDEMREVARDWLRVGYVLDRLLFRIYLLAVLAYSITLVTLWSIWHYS
Description: Compound affinity for the mouse 5-HT3 receptor (Assay C), [3H]-GR65630 radioligand binding, Novoscreen. The conditions noted are these: Assay C; single concentration 100 nM, in duplicate; [3H]-GR65630; read-out: Mouse % Inhibition @ 100 nM. The procedure: Compound Affinity for the Mouse 5-HT3Receptor (Assay C)
(§1) Compounds were tested by Novoscreen Biosciences Corporation, 7170 Standard Drive, Hanover, Md. in a radioligand binding assay using the mouse 5-HT3 receptor derived from mouse neuroblastoma cells and [^3H]-GR65630 (ligand). The non-specific binding determinant was MDL 72222. Compounds were tested at a single concentration of 100 nM in duplicate. Percent inhibition is reported. In order to evaluate the relative affinity of the various compounds for the 5-HT3 receptor, N1E-155 cell lines were developed to express the target protein. For binding, these cells were homogenized, centrifuged and washed with buffer (20 mM HEPES, 150 mM NaCl, pH 7.4) then suspended in 0.5 mL of buffer and [^3H]-GR65630 added at a concentration of 3.5×10^−10 M. An initial single concentration of 10^−7 M of the test compound was then added. Incubation was carried out at room temperature for 60 minutes at 25° C. then was terminated by rapid removal of the incubation medium. Radioactivity was assessed using liquid scintillation spectrophotometry after exposure to scintillation cocktail for at least three hours. […] Ki values were then calculated from the Cheng-Prusoff equation. In all of the above binding studies the non-specific determinant was MDL-72222 (1.0 μM).
(§2) In the table below, the assay in which the data were obtained is shown (as A, B. C, or D) along with the data.

For assay [1], the target named is T2, human 5-HT3 receptor (Homo sapiens, UniProt P46098).
T2 sequence (P46098 24-478): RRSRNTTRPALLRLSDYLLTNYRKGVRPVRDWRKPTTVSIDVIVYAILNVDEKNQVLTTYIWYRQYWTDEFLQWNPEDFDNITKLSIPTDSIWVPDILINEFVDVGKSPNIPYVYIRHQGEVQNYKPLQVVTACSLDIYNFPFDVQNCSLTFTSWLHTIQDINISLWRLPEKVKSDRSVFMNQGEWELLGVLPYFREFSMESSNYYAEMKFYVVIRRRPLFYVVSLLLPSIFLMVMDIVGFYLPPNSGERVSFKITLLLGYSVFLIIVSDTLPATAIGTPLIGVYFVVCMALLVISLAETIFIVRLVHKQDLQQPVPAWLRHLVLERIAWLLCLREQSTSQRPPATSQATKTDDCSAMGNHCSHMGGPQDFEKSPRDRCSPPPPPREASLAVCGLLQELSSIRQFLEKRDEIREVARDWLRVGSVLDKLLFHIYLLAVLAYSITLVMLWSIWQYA
Description: Compound affinity for the human 5-HT3 receptor (Assay A), [3H]-GR65630 radioligand binding, MDS Pharma. Also noted: host or cells: N1E-155 cell lines (so in the source). The procedure: Compound Affinity for the Human 5-HT3 Receptor (Assay A)
as §1, with “tested by MDS Pharma Services—Taiwan Ltd., 158 Li—The Road, Peitou, Taipei, Taiwan 112 R.O.C. In order” for “tested by Novoscreen Biosciences Corporation, 7170 Standard Drive, Hanover, Md. in a radioligand binding assay using the mouse 5-HT3 receptor derived from mouse neuroblastoma cells and [^3H]-GR65630 (ligand). The non-specific binding determinant was MDL 72222. Compounds were tested at a single concentration of 100 nM in duplicate. Percent inhibition is reported. In order”, “for the human 5-HT3 receptor,” for “for the 5-HT3 receptor,”
as §2

The target in assay [2] is T2, human 5-HT3 receptor. The experiment in a line: Compound affinity for the human 5-HT3 receptor (Assay B), SPA radioligand binding with [9-methyl-3H]BRL-43694. Also on record: purchased Perkin Elmer. As to the method:
Compound Affinity for the Human 5-HT3 Receptor (Assay B)
The relative affinity of the various compounds for the human 5-HT3 receptor was measured in a radioligand binding assay, using a scintillation proximity assay (SPA) format. Test compounds were dissolved to 10 mM in 100% DMSO, then serially diluted at 10× assay concentrations in 100% DMSO in 96-well polypropylene plates and further diluted to 4× assay concentrations with the assay buffer. Samples were incubated in 50 mM Tris-HCl, pH 7.5, 3 mM MgCl2, 1 mM EDTA and 10% DMSO with 10 nM [9-methyl-3H]BRL-43694 (Perkin Elmer), 3 μg of human 5-HT3 receptor membranes (Perkin Elmer) and 0.5 mg/mL SPA beads (WGA PVT, Amersham Biosciences) in a final volume of 0.2 mL. Binding reactions were set up in wells of PicoPlates-96 (Perkin Elmer) by adding consecutively 50 μL of each competing compound or buffer, SPA beads, the radioligand and 5-HT3 receptor membranes. After 60-min incubation at room temperature on a Nutator mixer, plates were centrifuged for 15 min at 1,500 rpm, followed by incubation in the dark for 30 min. Radioactivity was counted in the TopCount microplate counter (Perkin Elmer) for 5 min. Total binding control contained buffer only; nonspecific binding was determined in the presence of 30 μM MDL-72222. Specific binding was determined by subtracting nonspecific binding from total binding. All experiments were performed in duplicate using ten concentrations of a competing ligand, with ondansetron included as a control in every run. IC50 values were determined from specific binding data using XLfit4.1 curve fitting software from IDBS Ltd. Ki values were then calculated from the Cheng-Prusoff equation.
as §2

The next assay concerns the target T3, 5-HT3 receptors (Mus musculus, UniProt P23979).
T3 construct: from tissue; host or cells: whole animal, CD-1(Crl.) mice
T3 sequence (P23979 24-489): T1 sequence (P23979 24-489)
The experiment in a line: Bezold-Jarisch assay in vivo: inhibition of serotonin induced bradycardia. Particulars: 30 mg/kg orally, 60 min before 5-HT 0.5 mg/kg IV, pentobarbital-anesthetized. The procedure: Bezold-Jarisch Assay in vivo. […] Arch. Int. Pharmacodyn. 277: 235-252, 1985]. Test substances and vehicle [2% Tween 80] were each administered orally (30 mg/kg) to a group of 5 male or female CD-1(Crl.) mice each weighing 24±2 g. A dosing volume of 10 mL/kg was used. Sixty minutes later, 5-HT (0.5 mg/kg IV)-induced bradycardia was recorded in pentobarbital (80 mg/kg IP, given 10 minutes before 5-HT)-anesthetized animals.

The target in assay [3] is T2, human 5-HT3 receptor. Description: Compound affinity for the human 5-HT3 receptor (Assay D), [3H]BRL 43694 radioligand binding, Cerep. Also noted: host or cells: CHO cells. The procedure:
Compound Affinity for the Human 5-HT3Receptor (Assay D)
Compounds were tested by Cerep, Le Bois l'Evêque—B.P. 1-86600 Celle, L'Evescault, France in a radioligand binding assay using the human recombinant 5-HT3 receptor (CHO cells, Hope, A. G., Peters, J. A., Brown, A. M., Lambert, J. J. and Blackburn, T. P. Brit. J. Pharmacol., 1996, 118: 1237-1245) and [^3H]BRL 43694 (ligand) with a […] at 22° C. For the above studies, the non-specific binding determinant was MDL 72222 (10 μM). The IC50 values (concentration causing a half-maximal inhibition of control specific binding) and Hill coefficients were determined by non-linear regression analysis of the competition curves using Hill equation curve fitting. The inhibition constants (Ki) were calculated from the Cheng Prusoff equation (Ki=IC50/(1+(L/KD)), where L=concentration of radioligand in the assay, and KD=affinity of the radioligand for the receptor).
as §2

[4] abbreviates: Assay A, [3H]-GR65630, Cheng-Prusoff, read-out: Human 5HT3 Ki.

pKi: −log10 of the molar value. Counter-ions that a name gives are not always drawn.

A word on the inhibition: it is the drop in the measured response relative to a control, in per cent. A word on the pKi: it is the Ki on a negative log10 scale, so that one unit is a factor of ten. `CN1[C@@H]2CCC[C@H]1C[C@@H](NC(=O)c1cccc3oc(C4CCCC4)nc13)C2` [Example 5, Endo-N-(9-Methyl-9-azabicyclo[3.3.1]non-3-yl)-2-cyclopentylbenzoxazole-4-carboxamide Hydrochloride]: the inhibition at 0.1 µM at mouse 5-HT3 receptor turned out to be 96.2%. Also, on human 5-HT3 receptor [1], the pKi is 8.64. Turning to `CN1[C@@H]2CCC[C@H]1C[C@@H](NC(=O)c1cccc3oc(C4CC4)nc13)C2` [Example 1, Endo-N-(9-Methyl-9-azabicyclo[3.3.1]non-3-yl)-2-cyclopropylbenzoxazole-4-carboxamide], on human 5-HT3 receptor [2], the pKi was 8.39. Also, the “inhibition of 5-HT-induced bradycardia” value at 5-HT3 receptors was 56%. Moreover, the inhibition at 0.1 µM on mouse 5-HT3 receptor worked out at 96.1%. Compound `O=C(N[C@@H]1CN2CCC1CC2)c1cccc2oc(C3CC3)nc12` [Example 2, (S)—N-(1-Azabicyclo[2.2.2]oct-3-yl)-2-cyclopropylbenzoxazole-4-carboxamide] had a pKi at human 5-HT3 receptor [2] of 7.96. Moreover, on 5-HT3 receptors, the “inhibition of 5-HT-induced bradycardia” value stood at 80%. Besides, the inhibition at 0.1 µM at mouse 5-HT3 receptor was found to be 87.7%.

With `CC(=O)N1CCC(c2nc3c(C(=O)N[C@H]4C[C@H]5CCC[C@@H](C4)N5C)cccc3o2)CC1` [Example 23, Endo-N-(9-methyl-9-azabicyclo[3.3.1]non-3-yl)-2-(1-acetylpiperidin-4-yl)benzoxazole-4-carboxamide Hydrochloride], the pKi on human 5-HT3 receptor [1] (setting [4]) is 7.44. Same read-out and setting: next, `CN1[C@@H]2CCC[C@H]1C[C@@H](NC(=O)c1cccc3oc(C4CCOCC4)nc13)C2` [Example 24, Endo-N-(9-methyl-9-azabicyclo[3.3.1]non-3-yl)-2-(tetrahydro-2H-pyran-4-yl)benzoxazole-4-carboxamide Hydrochloride]: 7.75. Regarding `CC1CC1c1nc2c(C(=O)NC3CC4CCCC(C3)N4C)cccc2o1` (stereo not drawn) [Example 13, Endo-N-(9-Methyl-9-azabicyclo[3.3.1]non-3-yl)-2-(2-methylcyclopropyl)benzoxazole-4-carboxamide Hydrochloride], the inhibition at 0.1 µM on mouse 5-HT3 receptor was 88.1%. In addition, on human 5-HT3 receptor [1], the pKi is 8.24. `CN1[C@@H]2CCC[C@H]1C[C@@H](NC(=O)c1cccc3oc(C4CCC4)nc13)C2` [Example 17, Endo-N-(9-Methyl-9-azabicyclo[3.3.1]non-3-yl)-2-cyclobutylbenzoxazole-4-carboxamide Hydrochloride] had a pKi on human 5-HT3 receptor [3] of 8.15. Further, the inhibition at 0.1 µM on mouse 5-HT3 receptor was 108%. `O=C(N[C@@H]1CN2CCC1CC2)c1cccc2oc(CC3CC3)nc12` [Example 12, (S)—N-(1-Azabicyclo[2.2.2]oct-3-yl)-2-(cyclopropylmethyl)benzoxazole-4-carboxamide Hydrochloride] showed a pKi on human 5-HT3 receptor [3] of 7.59. At mouse 5-HT3 receptor, the inhibition at 0.1 µM stood at 90.6%. The like results for `O=C(N[C@@H]1CN2CCC1CC2)c1cccc2oc(C3CCC3)nc12` [Example 18, (S)—N-(1-Azabicyclo[2.2.2]oct-3-yl)-2-cyclobutylbenzoxazole-4-carboxamide Hydrochloride] were, in that order, 8.15 and 108%. As for `O=C(N[C@@H]1CN2CCC1CC2)c1cccc2ocnc12` [Example 22, (S)—N-(1-Azabicyclo[2.2.2]oct-3-yl)-benzoxazole-4-carboxamide Hydrochloride], the pKi on human 5-HT3 receptor [1] (setting [4]) is 7.78.
